Experimental data published in US12207673B2, “Compounds that modulate fatty acid receptor activity and pet food products containing the same” (MARS, INCORPORATED, priority 2014, dated 2025).

Tests used:
[1] = test system: CHO/NatClytin/mock+Gα16 (mock) cells; assay: Mock control of the agonist/PAM assay with ATP as agonist; assay type: cell-based; details: concentration used as min signal in PAM mode
Method: CHO/NatClytin/fGpr120+Gα16 (fGpr120) cells and CHO/NatClytin/mock+Gα16 (mock) cells were seeded at 5,000 cells/well. 24 hours after cell seeding, cells were loaded with 0.5×Fluo8-NW dye in standard tyrode buffer (20 μl/well) for 1 h at room temperature. The ability of dodecyl dihydrogen phosphate to activate fGPR120 expressed by the CHO cells was determined by measuring fluorescence using a FLIPR® Tetra screening system after contacting the cells with the compound in agonist mode and PAM mode according to the following protocol: • 1. […] PAM mode: injection of 3× dodecyl dihydrogen phosphate (10 μl/well), wherein fluorescence was measured for 3 min. After about 1 additional minute, injection of 3× fGPR120 agonist at a concentration corresponding to the agonist's EC20 (15 μl/well), wherein fluorescence (i.e., PAM activity) was measured for 3 min. The fGPR120 agonist was 1.5 μM α-linolenic acid. For mock controls, 0.2μ ATP was used as the agonist.
Controls for PAM mode experiments—dose response curves of α-linolenic acid (fGpr120) or ATP (mock) (FIGS. 12A and 12B): 100 μM α-linolenic acid (max signal for Gpr120), 1.5 μM α-linolenic acid (EC20, min signal for Gpr120), 30 μM ATP (max signal), 0.2 μM ATP (EC20, min signal).

[2] = test system: fGPR120; assay: fGPR120 agonist mode / PAM mode assay in CHO/NatClytin/fGpr120+Gα16 cells, Fluo8-NW, FLIPR Tetra; assay type: cell-based, feline
Method: Methods: CHO cells that stably express fGPR120 were used to assay dodecyl dihydrogen phosphate for activity as an fGPR120 agonist or PAM.
CHO/NatClytin/fGpr120+Gα16 (fGpr120) cells and CHO/NatClytin/mock+Gα16 (mock) cells were seeded at 5,000 cells/well. 24 hours after cell seeding, cells were loaded with 0.5×Fluo8-NW dye in standard tyrode buffer (20 μl/well) for 1 h at room temperature. The ability of dodecyl dihydrogen phosphate to activate fGPR120 expressed by the CHO cells was determined by measuring fluorescence using a FLIPR® Tetra screening system after contacting the cells with the compound in agonist mode and PAM mode according to the following protocol: • 1. […] For mock controls, 0.2μ ATP was used as the agonist.
The maximum of ΔF/F values measured using the FLIPR® Tetra system were exported and used for data analysis.
The compounds used in the experiments were dissolved 6× in 0.01% BSA (fatty acid-free) and then pre-mixed on compound plates with buffer.
Controls for agonist mode experiments—dose response curves of α-linolenic acid (FIGS. 12A and 12B): 100 μM α-linolenic acid (fGpr120 max signal), 30 μM ATP (max signal), buffer (min signal), buffer+0.01% BSA (min signal).

Nc1ncnc2c1ncn2[C@@H]1O[C@H](COP(=O)(O)OP(=O)(O)OP(=O)(O)O)[C@@H](O)[C@H]1O [ATP]
EC20 of ATP in mock cells [1]: 200 nM

CC/C=C\C/C=C\C/C=C\CCCCCCCC(=O)O [Compound 24, (9Z,12Z,15Z)-octadeca-9,12,15-trienoic acid]
EC20 of the fGPR120 agonist ([2]; fGpr120 cells, concentration used as min signal in PAM mode): 1500 nM

CCCCCCCCCCCCOP(=O)(O)O [dodecyl dihydrogen phosphate, Dodecyl dihydrogen phosphate]
modulation of fGPR120 activity as positive allosteric modulator (PAM) ([2]; PAM mode, in the presence of an fGPR120 agonist (1.5 μM α-linolenic acid, EC20)): modulated the activity of fGPR120 as a PAM
